Test results as given in a melting point compilation (Tetko et al.; mined from patent text by program, amines drawn as free bases though some values may be those of a salt).
Residues, ends and D or L forms follow the SMILES beside them. *: point of attachment. Tos = Cc1ccc(S(=O)(=O)*)cc1

| Structure (SMILES) | melting point [°C] |
| --- | --- |
| COc1ccc2c(c1)CC(COS(=O)(=O)c1ccc(C)cc1)CC2 (centres undefined) | 64 to 66 |
| CN(CCN(O)C(N)=O)Cc1cccc(Oc2ccc(Cl)c(Cl)c2)c1 | 107 to 109 |
| CN(C)Cc1nncn1-c1ccc(Br)cc1C(=O)c1ccccn1 | 145 to 146 |
| Cc1ccccc1-c1ncc(NC(=O)OCc2ccccc2)c(=O)n1CC(=O)NC(Cc1ccccc1)C(=O)C(F)(F)F (centres undefined) | 127 to 129 |
| O=C(O)C(=O)c1ccc(OCCOc2ccc3ccccc3c2)cc1F | 155 to 156 |
| NC(=O)CNc1ncccc1NC(=O)c1ccccc1 | 194 to 195 |
| CCCn1c(=O)c2[nH]c(-c3ccc(C=C(C(=O)OCC)C(=O)OCC)o3)nc2n(CCC)c1=O | 220 to 222 |
| CN(C)C=CC(=O)c1c(-c2ccc(C(C)(C)NC(=O)OC(C)(C)C)cc2)ccc2nn(C3CCCCO3)cc12 (centres undefined) | 191 to 194 |
| CC(C)n1c(=O)oc2cc(N3C[C@H](C(N)=O)OC3=O)ccc21 | 182 to 184 |
| CCCCC1(CCCC)c2cc(Br)ccc2-c2ccc(Br)cc21 | 117 to 118 |
| CCOC(=O)c1ccc(NCc2ccccc2)nc1C(=O)OCC | 110 to 114 |
| COC(=O)c1ccc2c(c1)c(=O)n(Cc1ccccc1)c(=O)n2C | 179 |
| CCOC(=O)c1cc2c(O)nncc2nc1NC(C)CC (centres undefined) | 184 to 185 |
| Cc1nnc(-c2ccc3occ(-c4ccc(S(=O)(=O)Cc5ccccc5)cc4)c3c2)o1 | 229 to 230 |
| Cn1ccc2c3c(c(-c4ccccc4S(C)=O)cc21)C(=O)NC3=O (centres undefined) | 311 to 315 |
| COc1ccc(-c2c(/C=C/C(=O)Oc3ccc([N+](=O)[O-])cc3)ccc3cc(OC)ccc23)cc1 | 160 to 161 |
| COc1cc2c(cc1OCc1ccccc1)CCN(Cc1cccc(C)c1)C2 | 81 to 82 |
| O=C(O)CCNC(=O)C(=Cc1ccccc1)CS | 80 |
| COC(=O)C1(Sc2cc(N3C(=O)C4=CCCCC4C3=O)c(F)cc2Cl)CCC1 (centres undefined) | 98 |
| O=C1C(=O)N(c2cccc3ccccc23)C(=O)N1c1ccccc1 | 105 to 108 |
| c1ccc2sc(N3CCNCC3)nc2c1 | 63 to 64 |
| CC1CC(=O)NN=C1c1ccc2c(c1)NCC(c1ccccc1)N2 (centres undefined) | 209 to 215 |
| CC(=O)Nc1ccc(Oc2ccccc2)c2c(=O)c3ccccc3n(C)c12 | 252 to 254 |
| CCCCn1c(C)cc(=O)n(C)c1=O | 181 to 182 |
| NC(=O)c1cc2cc(OCC3CO3)ccc2o1 (centres undefined) | 153 to 155 |

| Structure (SMILES) | melting point [°C] |
| --- | --- |
| Cc1ccc(S(=O)(=O)N2CCC[C@H]2C(=O)N[C@@H](CC(N)=O)C(=O)O)cc1 (Tos-Pro-Asn-OH) | 178 to 180 |
| CCOC(=O)c1ccc(N=C(Nc2ccc(C(=O)OCC)cc2)c2ccccc2Cl)cc1 | 98 to 108 |
| OC1CCc2c1cccc2-n1cccc1 (centres undefined) | 80 to 81 |
| CCCCOc1cc(CCC(=O)O)ccc1-c1cccc(CN(C)C(=O)c2ccccc2)c1 | 103 to 105 |
| COc1ccc(CC2CCCN(c3nc(C)c(C(=O)NCc4ccccc4)s3)C2=O)cc1 (centres undefined) | 116 to 118 |
| Cc1ccccc1CCCc1c(C)nc(N)nc1N | 213 to 215 |
| CC(=O)OCC1=C(C(=O)O)N2C(=O)C(=NSc3ccc(C)cc3)C2SC1 (centres undefined) | 204 to 206 |
| CC1(C)OCC(CONC(=O)c2ccc(F)c(F)c2Nc2ccc(I)cc2F)O1 (centres undefined) | 114 to 115 |
| CC(C)COc1ccc(N)cc1C#N | 88 to 93 |
| CCn1ncc2c3onc(-c4ccccc4)c3cnc21 | 151 to 153 |
| O=c1[nH]c(-c2ccccc2)c(F)c(=O)n1-c1ccc(OC(F)(F)F)cc1 | 295 to 303 |
| O=[N+]([O-])c1ccc(CN2CCN(CC(O)COc3cccc4[nH]c5ccccc5c34)CC2)o1 (centres undefined) | 54 to 59 |
| C/C(=C\c1ccc(OC(C)C)cc1Oc1ncc(C(F)(F)F)cc1Cl)C(=O)NS(=O)(=O)NCCc1ccccn1 | 121 to 123 |
| CSc1nc(CCC(F)(F)F)nc2sc(C)cc12 | 81 to 83 |
| CCOC(=O)c1cnc2ccc3nc(S(C)(=O)=O)sc3c2c1Cl | 170 to 179 |
| Cc1c(C(=O)Nc2ccc(N3CCC(O)CC3)c(C#N)c2)cnn1-c1ccc(Cl)cc1 | 247 |
| CSc1ccc(C2=C(c3ccccc3)C(=O)OC2)cc1F | 159 to 160 |
| O=C(O)C1OC(c2ccccc2)=NN1C(=O)CCS (centres undefined) | 106 to 109 |
| Cc1nc2ccc(-c3ccc(OCC4(N)COC4)cc3)nn2c1-c1cnc(N)c(C(F)(F)F)c1 | 198 to 200 |
| COC(=O)C(C)Nc1ccc(F)c(F)c1F (centres undefined) | 41 to 43 |
| O=[N+]([O-])c1ccc(Oc2ccc(Cl)c(Cl)c2)nc1 | 101 to 102 |
| COc1cccc(/C=C/C(=O)/C=C/c2cccc(OC)c2OC)c1OC | 106 to 108 |
| CC(=O)NC1Cc2ccccc2C1 | 126 to 128 |
| O=C(O)Cc1ccc2c(c1)CCc1ccccc1S2 | 111 to 112 |
| COC(=O)CCc1ccc(OCc2sc3ccccc3c2Cl)cc1 | 97 to 98 |

| Structure (SMILES) | melting point [°C] |
| --- | --- |
| CC(C)(C)OC(=O)CN1CCC(CNC(=O)c2cc(Cl)c(N)[nH]c2=O)CC1 | 200 to 203 |
| Cc1cc2nc(S(=O)Cc3ccccc3N)[nH]c2cc1C (centres undefined) | 179 to 181 |
| O=C1CCc2cc(-c3ccccc3)ccc21 | 75 |
| CS(=O)(=O)c1cccc(NC(=O)c2cnn3ccc(-c4ccc(Cl)cc4)nc23)c1 | 258 to 260 |
| O=Cc1ccc(-n2ncc3sc4ccccc4c32)cc1 | 261 to 263 |
| CCCOc1cccc(OCCC)c1C(=O)Nc1cc(C(C)(C)C)no1 | 85 to 87 |
| CCOc1ccc(OC)cc1C(N)=O | 128 to 130 |
| COCCc1ccc(OCC(O)CNC(C)COc2ccc(O)c(C(N)=O)c2)cc1 (centres undefined) | 139 to 142 |
| Cc1oc(-c2ccc(Cl)cc2)cc1C(=O)N[C@H](C)[C@](O)(Cn1cncn1)c1ccc(F)cc1F | 189 to 190 |
| COc1cccc2c1N(S(=O)(=O)c1ccc(-c3ccc(F)cc3F)cc1)C(C(=O)NCCOc1ccc(C(=O)O)cc1)C2 (centres undefined) | 234 |
| Cc1nc(N)nc(N)c1N1CCN(c2ccc(S(=O)(=O)N(C)C)cc2)CC1 | 301 to 304 |
| CC1(C)CNC(=O)N1CC#CCN1CCCC1 | 50 |
| N#Cc1ccc(-c2csc(-n3c(=O)oc4ccccc43)n2)cc1 | 244 to 245 |
| O=C1c2ccccc2C(=O)N1CC(=O)N1c2ccccc2N(Cc2ccccc2F)C(=O)[C@H]2CCC[C@H]21 (relative stereo) | 250 to 253 |
| CCC(CC)/C(N)=C(\C#N)C(=O)OC(C)C | 140 |
| CON(C)C(=O)Nc1cc(C(C)(C)C)on1 | 106 to 107 |
| COC(=O)C1C(CC(C)C)C(C(=O)OC)C(O)(C(F)(F)F)OC1(O)C(F)(F)F (centres undefined) | 67 to 73 |
| O=C(O)/C(=N/OCc1ccccc1)c1ccc(OCCOc2ccc3ccccc3c2)s1 | 103 to 104 |
| COCCC(=O)c1cc2c(=O)n(NS(C)(=O)=O)c(=O)[nH]c2cc1C(F)(F)F | 186 to 191 |
| O=C(Nc1ccccc1)NC1C(=O)N(CCO)c2ccccc2N(CC23CC4CC(CC(C4)C2)C3)C1=O (single isomer, unassigned; (-)) | 165 to 170 |
| CCCc1cc(Cl)c2oc(Cc3ccc(OC(C)=O)cc3)c(C)c2c1OC(C)=O | 119 to 120 |
| COc1cc(C(C)C)c2c(c1)S(=O)(=O)N(COc1cc(C#N)nn1-c1ccc(Cl)cc1)C2=O | 135 |
| O=C(Nc1ccccn1)c1sc(Nc2ccccc2)c2c1CCc1cnoc1-2 | 196 to 197 |
| CS(=O)(=O)c1ccc(Br)c([N+](=O)[O-])c1 | 126 |
| CC(C)(C)COc1ccc(-n2ncc(C(=O)O)c2Cl)cc1C#N | 212 |

| Structure (SMILES) | melting point [°C] |
| --- | --- |
| O=[N+]([O-])CC(c1ccc(Cl)cc1)C1CCCCC1O (racemic) | 82 to 84 |
| CCOC(=O)C(=O)Nc1c([N+](=O)[O-])sc2c(Cl)cc(Cl)cc12 | 177 to 180 |
| COc1cc2ncc(C#N)c(Nc3cccc(Cl)c3)c2cc1OC | 214 to 217 |
| COC(=O)C(C)(C)OCc1cc2cc(Cl)ccc2n1S(=O)(=O)c1ccc(OC)cc1 | 96 to 98 |
| CC(=O)NCCCc1c(N)ccc2c1C(=O)c1ccccc1C2=O | 202 |
| COc1ccc(N2CCOCC2)cc1NC(=S)C(=O)Nc1ccc(F)cc1 | 206 to 208 |
| CC(C)(C)OC(=O)N1CCC(Oc2ccc(C(=O)Cc3ccccn3)cc2)CC1 | 138 to 140 |
| O=C(O)c1cc(O)cc2ccccc12 | 210 to 212 |
| Cc1c(F)c(N2CCC(N)C2)cc2c1c(=O)c(C(=O)O)cn2C1CC1 (centres undefined) | > 300 |
| COc1ccc(-c2ccnc3c(C(=O)c4cccs4)cnn23)c(OC)c1 | 146 to 148 |
| Nc1ccc2ccc(Oc3ccc(Cl)c(Cl)c3)nc2n1 | 206 |
| Oc1ccc2ccc(OCc3ccccc3)cc2c1 | 152 to 154 |
| O=Cc1c2ccccc2c(Br)c2ccccc12 | 215 to 216 |
| CCOC(=O)Cc1ccc2c(c1)C(c1ccccc1Cl)=NCc1nnc(C)n1-2 | 157 to 158 |
| O=C1NC(=O)c2cc(CCCCCN3CCC(c4nc(-c5ccncc5)c(-c5ccc(Cl)c(Cl)c5)[nH]4)CC3)ccc21 | 129 to 134 |
| CCCCCC[C@@H](CC(N)=O)N(CCC)C(=O)[C@H](CCCC(=O)O)NC(=O)c1cn(Cc2ccccc2)c2ccccc12 | 147 to 157 |
| CS(=O)(=O)Nc1cc(C(c2cc(C#N)ccc2F)S(=O)(=O)c2ccc(Cl)cc2)c(Cl)cn1 (centres undefined) | 118 to 120 |
| O=c1c(Cl)nc2ccccc2n1-c1ccc(Cl)cc1 | > 300 |
| CCOc1cc(CBr)ccc1C(=O)O | 64 to 66 |
| CCc1cc2c(s1)-n1nnnc1CN=C2c1ccccc1Cl | 135 to 136 |
| O=C(NCc1ccccc1Cl)c1cccnc1Oc1cccnc1 | 174 to 176 |
| CCOP(=O)(OCC)C(CC(NC(=O)OC(C)(C)C)C(=O)c1ccccc1)P(=O)(OCC)OCC (centres undefined) | 56 to 57 |
| NOCCc1cn(C(c2ccccc2)(c2ccccc2)c2ccccc2)cn1 | 93 |
| C=C(Cc1ccccc1)C(O)C(NC=O)C(=O)OCC (centres undefined) | 87 to 89 |
